# Results from publication PMC9555642 (PLoS ONE, 2022).
# Key:
# IKs = target: T1, IKs (Homo sapiens, UniProt P51787); experiment: Cardiovascular ion channel panel, SyncroPatch 384PE patch clamp; format: cell-based; settings: CHO K1 cell line, room temperature, 6 point cumulative assay
# T1 construct: expressed in transfected cells; host or cells: Chinese hamster ovary K1 cell line
# COPD HBEC ALI cultures [1] = experiment: Cytokine release in basolateral supernatants (MSD), TNF challenge; format: cell-based, human; settings: 10 μM, TNF 5, 20 and 50 ng/ml, day seven
# Protocol: TEER and permeability were measured after seven days.
# To assess cytokines released, basolateral supernatants were collected on day seven and immediately frozen at -80°C until MSD analysis of IL-6, CCL2 and CXCL10. In short, U-PLEX MSD plates (Mesoscale Discovery, Rockville, Maryland, USA) were coated, washed and stored overnight. Standard curves were prepared and added in duplicates on each plate. Supernatants were thawed on ice and added to the plates, which were incubated on an orbital shaker for one hour before sulfo-tagged antibodies were added and incubated for another hour. Plates were washed, read buffer added and read on MESO SECTOR S 600 (Mesoscale Discovery, Rockville, Maryland, USA). Data was plotted as fold change to DMSO control.
# cyclooxygenase 2 (COX2) = target: T2, cyclooxygenase 2 (COX2) (Homo sapiens, UniProt P35354); experiment: Secondary pharmacology panel (Eurofins); format: biochemical
# T2 construct: purchased Eurofins Pharma Discovery Services
# T2 sequence (P35354 18-604): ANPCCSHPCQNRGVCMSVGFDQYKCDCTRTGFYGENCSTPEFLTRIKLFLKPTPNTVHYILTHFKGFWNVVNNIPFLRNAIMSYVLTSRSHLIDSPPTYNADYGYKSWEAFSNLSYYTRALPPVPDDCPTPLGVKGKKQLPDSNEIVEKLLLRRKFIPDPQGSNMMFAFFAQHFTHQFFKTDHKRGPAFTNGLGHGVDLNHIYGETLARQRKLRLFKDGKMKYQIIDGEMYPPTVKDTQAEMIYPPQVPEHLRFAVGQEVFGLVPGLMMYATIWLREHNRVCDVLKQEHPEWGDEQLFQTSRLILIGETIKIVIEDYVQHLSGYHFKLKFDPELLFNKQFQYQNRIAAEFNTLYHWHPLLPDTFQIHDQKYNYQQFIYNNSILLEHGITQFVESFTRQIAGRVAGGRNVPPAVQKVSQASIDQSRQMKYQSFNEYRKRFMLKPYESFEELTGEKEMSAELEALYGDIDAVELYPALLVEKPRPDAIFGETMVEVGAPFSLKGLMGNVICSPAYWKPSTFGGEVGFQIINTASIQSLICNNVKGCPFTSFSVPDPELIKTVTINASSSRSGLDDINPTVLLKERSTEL
# Protocol: Second pharmacology screening was performed at Eurofins Pharma Discovery Services in a panel of 190 in vitro radioligand binding and enzyme assays covering a diverse set of enzymes, receptors, ion channels, and transporters.
# COPD HBEC ALI cultures [2] = experiment: Cigarette smoke extract (CSE) challenge in ALI, FITC-dextran permeability; format: cell-based, human; settings: 10 μM pre-treatment 3 days, CSE 1, 3 and 6% for 48 hours, two COPD donors
# Protocol: The paracellular permeability was determined by using fluorescein isothiocyanate labeled 4kD-dextran (Sigma-Aldrich, St. Louis, USA). 18 hours after addition of 0.2 mg FITC-dextran in 200 μL medium to the apical side of the ALI cultures, the fluorescence in the basolateral medium was measured using PHERAstar FSX (excitation 485 nm and emission 520 nm) (BMG LABTECH, Ortenberg, Germany). The time point was chosen for optimal window in the assays as well as practical reasons and has been kept consistent in between different stimulations throughout this work. Data was plotted as fold-change of 0.1% DMSO control.
# Cigarette smoke extract (CSE) experiments were performed using CSE containing media. In short, smoke from five filterless Kentucky research cigarettes, 3R4F (Kentucky Tobacco Research and Development Center, Lexington, USA), was bubbled through 25 ml of PBS at a speed of five minutes per cigarette. The CSE was filtered through a 0.2 μm sterile filter and stored at -80°C until addition to the basolateral side of HBEC ALI cultures from two COPD donors. […] Permeability was measured after 48 hours.
# COPD HBEC ALI cultures [3] = experiment: Mucociliary clearance (bead tracking), TNF challenge; format: cell-based, human; settings: TNF 20 ng/ml, day ten, 3 COPD donors, p = 0.0026
# Protocol: In the TNF (20 ng/ml) challenged cultures, the apical surfaces were washed with pre-warmed PBS the day before addition of 50 μL of CountBright Absolute Counting beads (Invitrogen, Carlsbad, CA, USA) diluted 1:10 000 in PBS with Mg^2+ and Ca^2+. Inserts were transferred to a 12-well glass bottom plate (Cellvis, Mountain View, USA) and monitored in a Zeiss LSM 880 (Carl Zeiss AG, Oberkochen, Germany) at 37°C. Three regions in each well of each condition in three COPD donors were filmed and analyzed. Beads were tracked in the ImageJ software with the Fiji plugin Tracking and the mean velocity of each bead was plotted.
substance,measurement,setting,value
ACY-1083,activity on IKs,IKs,> 30 µM
same,CCL2 protein induction in basolateral supernatant,COPD HBEC ALI cultures [1],reduced
same,CXCL10 protein induction in basolateral supernatant,COPD HBEC ALI cultures [1],reduced
same,IL-6 protein induction in basolateral supernatant,COPD HBEC ALI cultures [1],reduced
same,IC50,cyclooxygenase 2 (COX2),6.48 µM
same,paracellular permeability after CSE challenge,COPD HBEC ALI cultures [2],reduction in permeability at all concentrations
same,bead velocity (mucociliary clearance),COPD HBEC ALI cultures [3],significantly protected from reduction in speed
